Reference: PubChem BioAssay (NCI)
Where “and” joins values, the source holds several entries; their conditions need not be identical. Identical values can stand only once.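 Following 48 hours of exposure in 96-well plates, responses at five concentrations were used to interpolate endpoints linearly. GI50 = concentration required for 50% inhibition of growth. The concentration for full growth arrest is given as TGI.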

Tests used:
Experiment in all cases: inhibition of tumour cell growth, NCI panel, 48 h
A549 NSCLC = test system: A549 NSCLC
DU-145 prostate = test system: DU-145 prostate
HCT-116 colon = test system: HCT-116 colon
HOP-62 NSCLC = test system: HOP-62 NSCLC
IGROV1 ovarian = test system: IGROV1 ovarian
NCI-H226 lung = test system: NCI-H226 lung
NCI-H23 lung = test system: NCI-H23 lung
SF-539 CNS = test system: SF-539 CNS
SW-620 colon = test system: SW-620 colon
U251 CNS = test system: U251 CNS

Row | Structure (SMILES) | GI50 (A549 NSCLC) [µM] | TGI (A549 NSCLC) | GI50 (DU-145 prostate) [µM] | TGI (DU-145 prostate) | GI50 (HCT-116 colon) [µM] | TGI (HCT-116 colon) | GI50 (HOP-62 NSCLC) [µM] | TGI (HOP-62 NSCLC) | GI50 (IGROV1 ovarian) [µM] | TGI (IGROV1 ovarian) | GI50 (NCI-H226 lung) [µM] | TGI (NCI-H226 lung) | GI50 (NCI-H23 lung) [µM] | TGI (NCI-H23 lung) | GI50 (SF-539 CNS) [µM] | TGI (SF-539 CNS) | GI50 (SW-620 colon) [µM] | TGI (SW-620 colon) | GI50 (U251 CNS) [µM] | TGI (U251 CNS)
1 | COc1cc2c3c(n(CCCN4CCN(CCO)CC4)c(=O)c2cc1OC)-c1cc2c(cc1C3=O)OCO2 | 4.23 | 20.7 µM | 0.107 | 2.41 µM | 1.14 | 7.79 µM | 10.1 | 54 µM | > 34.2 | > 50.9 µM | 7.49 | 28.4 µM | 4.77 | 16.5 µM | 1.46 | 6.3 µM | 8.37 | 24.7 µM | > 33.7 | > 48.6 µM
2 | O=C1/C(=C/c2cccc(F)c2)CN(C(=O)C(Cl)Cl)C/C1=C\c1cccc(F)c1 | 0.655 | 2.14 µM | 0.392 | 1.36 µM | 0.0634 | 0.239 µM | 0.353 | 1.19 µM | 0.209 | 0.531 µM | 0.259 | 0.685 µM | 0.234 | 0.69 µM | 0.265 | 0.824 µM | 0.0325 | 0.125 µM | 0.116 | 0.294 µM
3 | C[C@H](c1ccc(Cl)cc1[N+](=O)[O-])N1C(=O)c2cc(I)ccc2NC(=O)[C@H]1c1ccc(Cl)cc1 | 6.01 | > 100 µM | > 100 | > 100 µM | 5.78 | > 100 µM | > 100 | > 100 µM | 8.21 | > 100 µM | > 100 | > 100 µM | > 100 | > 100 µM | > 100 | > 100 µM | > 100 | > 100 µM | > 100 | > 100 µM
4 | O=[N+]([O-])c1ccc2nc(=S)[nH]n2c1 |  | > 100 µM |  | > 100 µM |  | > 100 µM |  | > 100 µM |  | > 100 µM |  | > 100 µM |  | > 100 µM |  | > 100 µM |  | > 100 µM |  | > 100 µM
5 | Nc1ncnc2c1ncn2C1OC(C(=O)OCCO)C(O)C1O (stereo not drawn) |  | > 100 µM |  | > 100 µM |  | > 100 µM |  | > 100 µM |  | > 100 µM |  | > 100 µM |  | > 100 µM |  | > 100 µM |  | > 100 µM |  | > 100 µM
6 | CCCCCCCCC(=O)NCCN(CCN)C(=O)CCCCCCCC |  | 29.9 µM |  | 27.9 µM |  | 8.02 µM |  | 30.6 µM |  | 19.5 µM |  | 37.1 µM |  | 32.2 µM |  | 15.3 µM |  | 6.31 µM |  | 9.26 µM
7 | CN1CCN(Cc2ccc(NC(=O)c3cncc(C#Cc4ncc5ccccn45)c3)cc2C(F)(F)F)CC1 | 1.35 | 5.48 µM | 1.35 | 4.51 µM | 0.674 | 3.06 µM | 1.45 | 4.77 µM | 0.892 | 4.07 µM | 0.451 | 3.91 µM | 1.34 | 5.75 µM | 0.471 | 1.91 µM | 0.842 | 3.12 µM | 2.89 | 6.39 µM
8 | C[C@H](CCCOS(C)(=O)=O)[C@H]1CC[C@H]2[C@@H]3CC[C@@H]4C[C@H](OS(C)(=O)=O)CC[C@]4(C)[C@H]3CC[C@]12C | 793 |  | 1160 |  | 532 | 1240 µM | 493 |  | 518 | 1450 µM | 418 |  | 286 |  | 586 |  | > 2500 | > 2500 µM | 356 | 
9 | CC(=O)N1c2ccc(-c3ccc(C(=O)O)cc3)cc2[C@H](Nc2ccc(Cl)cc2)C[C@@H]1C | 1.23 | 28.1 µM | 12.1 | > 100 µM | 0.266 | 15.2 µM | 0.0677 | 22.4 µM | 0.531 | 64.9 µM | 1.71 | 19.9 µM | 0.918 | 44.3 µM | 0.0622 | 20.2 µM | 11.1 | > 62 µM | 1.55 | 32.9 µM
10 | COc1ccc(-c2cc3c(N)ncnc3o2)cc1 | > 25 | > 25 µM | 19.9 | > 25 µM | > 25 | > 25 µM | > 25 | > 25 µM | 24.3 | > 25 µM | > 25 | > 25 µM | > 25 | > 25 µM | > 25 | > 25 µM | > 25 | > 25 µM | > 25 | > 25 µM
11 | Nc1cc(N)c2nc(-c3ccccc3)c(Oc3ccc(Cl)c(Cl)c3)nc2c1 | 18.1 | 43.5 µM |  | 27.1 µM | 15.7 | 48.3 µM | 16.9 | 37.9 µM | 11.4 | 32.2 µM | 15.1 | 49.5 µM | 15.6 | 39.9 µM | 13.5 | 29.5 µM | 9.69 | 30.1 µM | 12.1 | 31.9 µM
12 | CCC(=O)OCN1C(=O)C=CC1=O |  | 39.9 µM and 34.9 µM | 20 | 34.2 µM and 30.2 µM | 11.8 | 25.8 µM and 29.9 µM |  | 37.6 µM and 34.9 µM | 21.4 | 40.5 µM and 34.2 µM | 15.2 | 30.1 µM and > 63.3 µM | 20.1 | 39.6 µM and 34.7 µM | 20.5 | 36.8 µM and 33.8 µM |  | 3.58 µM and 4.43 µM |  | 31.1 µM and 31.6 µM
13 | O=C(O)CSc1nnc2c3ccccc3c3ccccc3c2n1 |  | > 100 µM |  | > 100 µM |  | > 100 µM |  | > 100 µM |  | > 100 µM |  | > 100 µM |  | > 100 µM |  | > 100 µM |  | > 100 µM |  | > 100 µM
14 | CCC(=O)Oc1ccc(/C=N/NC(N)=S)nc1 | 35.4 | > 100 µM | 3.05 | > 100 µM | 4.46 | > 100 µM | 5.53 | 82.3 µM | 9.94 | > 100 µM | 9.72 | 43.4 µM | 2.48 | > 100 µM | 1.51 | 5.52 µM | 7.67 | > 100 µM | 4.5 | > 100 µM
15 | CC1CC2(C)CC(=O)C1C1C(=O)N(CCN3CCOCC3)C(=O)C12 (stereo not drawn) | > 100 | > 100 µM | > 100 | > 100 µM | > 100 | > 100 µM | > 100 | > 100 µM | > 100 | > 100 µM | > 100 | > 100 µM | > 100 | > 100 µM | > 100 | > 100 µM | > 100 | > 100 µM | > 100 | > 100 µM
